Source: patent US6861438B2, “Antiviral agents” (Pfizer, priority 2002, dated 2005)

Structure (SMILES) | melting point
O=C(NCc1ccc(Cl)cc1)c1cnc2ccsc2c1O [Example 1, N-(4-Chlorobenzyl)-7-hydroxythieno[3,2-b]pyridine-6-carboxamide] | 295 °C (dec.)
CCn1cc(C(=O)NCc2ccc(Cl)cc2)c(=O)c2sccc21 [Example 2, N-(4-Chlorobenzyl)-4-ethyl-7-oxo-4,7-dihydrothieno[3,2-b]pyridine-6-carboxamide] | 189 to 192 °C
